Patent US20110165173A1, “THERAPEUTIC AGENT AND DETECTION REAGENT FOR ARTERIOSCLEROTIC DISEASE WHICH TARGETS FOR SALUSIN” (PROTEINEXPRESS CO., LTD., priority 2007, published 2011)

Test system: ACAT-1 mRNA expression
Experiment: ACAT-1 mRNA expression in human monocyte-derived macrophages (real time RT-PCR)
Assay type: cell-based
Settings: 0.6 nM during 7-day culture
Procedure: RNA extraction was performed using a TRIzol reagent (LIFE TECHNOLOGIES).
Cells were cultured for 7 days in a medium and then the medium was removed. The cells were washed 3 times with PBS. PBS was sufficiently removed therefrom and TRIzol (1 mL) was added thereto for cell lysis. The cell extraction solution was pippeted in and out 5 times and then transferred to a new Eppendorf tube. Then, the tube was left at room temperature for 5 minutes. Chloroform (200 μL) was added thereto, followed by strong shaking for 15 seconds. The tube was further left for 2 to 3 minutes and centrifuged at 12,000 rpm for 15 minutes (Himac CF15D2 high-speed micro refrigerated centrifuge; Hitach, Ltd.). The top layer was transferred to a new Eppendorf tube and isopropanol (500 μL) was added thereto, followed by end-over-end mixing. […] The concentration of the thus obtained RNA solution was obtained by absorbance determination at 260 nm. […]
Next, the RNA expression of ACAT-1 mRNA was analyzed by the real time RT-PCR method.
Primer sequences were determined Primer Express Version 1.0 (PE Biosystems) with the use of the respective human mRNA sequences shown below. […]
Real time PCR was performed to quantify the obtained cDNA by the GeneAmp 5700 Sequence Detection System (Applied Biosystems Japan) with the use of qPCR MasterMix SYBR Greenl (Eurogentec). […]

Substance	ACAT-1 mRNA expression level, percent of that of the control [%]	ACAT-1 mRNA expression level relative to control [times]
salusin-α: peptide (SEQ ID NO: 1) comprising 28 amino acid residues, generated by processing from preprosalusin (SGALPPAPAAPRPALRAQRAGPAGPGAK; listed as Homo sapiens)	80	
salusin-β: peptide (SEQ ID NO: 3) comprising 20 amino acid residues, generated by processing from preprosalusin (AIFIFIRWLLKLGHHGRAPP; listed as Homo sapiens) [reference compound]		1.6
